Data published in ChEMBL document CHEMBL1201862, “PubChem BioAssay data set” (2004).
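Tested at 5 concentrations; 48 h exposure; 96-well plates; endpoints linearly interpolated, else capped at highest concentration. The concentration for 50% growth inhibition is given as GI50.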 Active and inactive are the calls of the source. Cut-off read from the data, not from the text of the source: active = GI50 up to about 1.1 µM and inactive = higher.

Experiments:
Experiment in all cases: growth of human tumour cells (NCI), 48 h
[1] = test system: SK-OV-3
[2] = test system: MOLT-4
[3] = test system: HOP-92
[4] = test system: SK-MEL-2
[5] = test system: SW-620
[6] = test system: Malme-3M
[7] = test system: SK-MEL-28
[8] = test system: KM12
[9] = test system: NCI-H23
[10] = test system: SNB-19
[11] = test system: PC-3
[12] = test system: NCI-H460
[13] = test system: CAKI-1
[14] = test system: 786-0
[15] = test system: M14
[16] = test system: Hs-578T
[17] = test system: UACC-257
[18] = test system: HT-29
[19] = test system: SF-268
[20] = test system: NCI-H226
[21] = test system: COLO 205
[22] = test system: SNB-75
[23] = test system: A549
[24] = test system: RXF 393
[25] = test system: OVCAR-4
[26] = test system: HCT-15
[27] = test system: K562
[28] = test system: SF-295
[29] = test system: SN12C
[30] = test system: OVCAR-3
[31] = test system: UO-31
[32] = test system: RPMI-8226
[33] = test system: U-251
[34] = test system: SK-MEL-5
[35] = test system: LOX IMVI
[36] = test system: DU-145
[37] = test system: T47D
[38] = test system: BT-549
[39] = test system: OVCAR-5
[40] = test system: HCC 2998
[41] = test system: CCRF-CEM
[42] = test system: NCI/ADR-RES
[43] = test system: HCT-116
[44] = test system: UACC-62
[45] = test system: IGROV-1
[46] = test system: MCF7
[47] = test system: HOP-62
[48] = test system: MDA-MB-435
[49] = test system: EKVX
[50] = test system: OVCAR-8
[51] = test system: MDA-N
[52] = test system: SF-539
[53] = test system: MDA-MB-231
[54] = test system: HL-60
[55] = test system: TK-10
[56] = test system: ACHN
[57] = test system: NCI-H522
[58] = test system: A498

With O=C1C[C@H](c2ccccc2)O[C@@H](c2ccccc2)C1 the GI50 [1] was > 100000 nM (inactive), the GI50 [2] was 58100 nM (inactive) and the GI50 [3] was > 100000 nM (inactive). For the same compound, the GI50 [4] was > 100000 nM (inactive), the GI50 [5] was > 100000 nM (inactive) and the GI50 [6] was > 100000 nM (inactive). For the same compound, the GI50 [7] was > 100000 nM (inactive), the GI50 [8] was > 100000 nM (inactive) and the GI50 [9] was > 100000 nM (inactive). For the same compound, the GI50 [10] was > 100000 nM (inactive), the GI50 [11] was > 100000 nM (inactive) and the GI50 [12] was > 100000 nM (inactive). The GI50 [13] was > 100000 nM (inactive), the GI50 [14] was 88100 nM (inactive) and the GI50 [15] was > 100000 nM (inactive). For the same compound, the GI50 [16] was > 100000 nM (inactive), the GI50 [17] was > 100000 nM (inactive) and the GI50 [18] was > 100000 nM (inactive). The GI50 [19] was > 100000 nM (inactive), the GI50 [20] was > 100000 nM (inactive) and the GI50 [21] was > 100000 nM (inactive). For the same compound, the GI50 [22] was > 100000 nM (inactive), the GI50 [23] was > 100000 nM (inactive) and the GI50 [24] was > 100000 nM (inactive). For the same compound, the GI50 [25] was > 100000 nM (inactive), the GI50 [26] was greater than 100000 nM and the GI50 [27] was 26900 nM (inactive). For the same compound, the GI50 [28] was > 100000 nM (inactive), the GI50 [29] was > 100000 nM (inactive) and the GI50 [30] was > 100000 nM (inactive). The GI50 [31] was > 100000 nM (inactive), the GI50 [32] was > 100000 nM (inactive) and the GI50 [33] was > 100000 nM (inactive). For the same compound, the GI50 [34] was > 100000 nM (inactive), the GI50 [35] was > 100000 nM (inactive) and the GI50 [36] was > 100000 nM (inactive). The GI50 [37] was > 100000 nM (inactive), the GI50 [38] was > 100000 nM (inactive) and the GI50 [39] was > 100000 nM (inactive). The GI50 [40] was > 100000 nM (inactive), the GI50 [41] was > 100000 nM (inactive) and the GI50 [42] was > 100000 nM (inactive). For the same compound, the GI50 [43] was > 100000 nM (inactive), the GI50 [44] was > 100000 nM (inactive) and the GI50 [45] was > 100000 nM (inactive). The GI50 [46] was 74300 nM (inactive), the GI50 [47] was > 100000 nM (inactive) and the GI50 [48] was > 100000 nM (inactive). For the same compound, the GI50 [49] was > 100000 nM (inactive), the GI50 [50] was > 100000 nM (inactive) and the GI50 [51] was > 100000 nM (inactive). For the same compound, the GI50 [52] was > 100000 nM (inactive) and the GI50 [53] was > 100000 nM (inactive).

COc1cccc(/C=C/C(=O)N2CC(CCl)c3c2cc(N)c2ccccc32)c1 (centres undefined) was tested, and the GI50 [1] was 3.71 nM (active), the GI50 [2] was 19.4 nM (active) and the GI50 [3] was 99.3 nM (active). The GI50 [54] was < 10 nM (active), the GI50 [4] was 8.34 nM (active) and the GI50 [5] was 1.94 nM (active). The GI50 [6] was < 10 nM (active), the GI50 [7] was 11.4 nM (active) and the GI50 [8] was 4.34 nM (active). The GI50 [9] was 0.65 nM (active), the GI50 [10] was 5.9 nM (active) and the GI50 [11] was 2.84 nM (active). For the same compound, the GI50 [12] was 0.115 nM (active), the GI50 [13] was 0.566 nM (active) and the GI50 [14] was 1.06 nM (active). The GI50 [15] was 9.57 nM (active), the GI50 [55] was 3.14 nM (active) and the GI50 [16] was 9.68 nM (active). The GI50 [17] was 19.3 nM (active), the GI50 [18] was < 10 nM (active) and the GI50 [19] was 0.693 nM (active). The GI50 [20] was 13.7 nM (active), the GI50 [21] was 14.6 nM (active) and the GI50 [22] was 2.37 nM (active). The GI50 [23] was 1.53 nM (active), the GI50 [24] was 1.32 nM (active) and the GI50 [25] was 3.44 nM (active). For the same compound, the GI50 [26] was 34 nM, the GI50 [27] was < 10 nM (active) and the GI50 [28] was 1.14 nM (active). For the same compound, the GI50 [29] was 3.57 nM (active), the GI50 [30] was < 10 nM (active) and the GI50 [31] was 1.71 nM (active). For the same compound, the GI50 [32] was 50.7 nM (active), the GI50 [33] was 0.344 nM (active) and the GI50 [34] was < 10 nM (active). The GI50 [35] was 0.548 nM (active), the GI50 [36] was 0.18 nM (active) and the GI50 [56] was 0.264 nM (active). For the same compound, the GI50 [37] was 3.4 nM (active), the GI50 [57] was 0.45 nM (active) and the GI50 [38] was 12.2 nM (active). For the same compound, the GI50 [39] was 8.04 nM (active), the GI50 [40] was 2.42 nM (active) and the GI50 [41] was < 10 nM (active). The GI50 [42] was 73.1 nM (active), the GI50 [43] was 1.09 nM (active) and the GI50 [44] was 2.98 nM (active). For the same compound, the GI50 [46] was 0.238 nM (active), the GI50 [47] was < 10 nM (active) and the GI50 [48] was 3.19 nM (active). For the same compound, the GI50 [58] was 6.65 nM (active), the GI50 [49] was 14.2 nM (active) and the GI50 [50] was 1.09 nM (active). The GI50 [51] was 14.3 nM (active) and the GI50 [53] was 3.9 nM (active).
